Experimental data reported in patent EP4745136A1, “PROTEIN TYROSINE PHOSPHATASE INHIBITOR, COMPOSITION COMPRISING SAME, AND MEDICAL USE THEREOF” (Shenzhen Zhongge Biological Technology Co., Ltd., priority 2023, dated 2025).

Columns and labels:
B16F10 cells = assay: B16F10 mIFNγ-induced cell growth inhibition assay (CTG); assay type: cell-based
Method: 40 µL (150 cells/well) of B16F10 cells (source ATCC Cat#CRL-6475) were inoculated into a 384-well plate, and the compounds were transferred to the 384-well plate containing cells using EHCO. One group of cells was added with 10 µL of complete medium (RPMI 1640 medium+10% FBS) without mIFNγ, one group was added with 10 µL of complete medium containing mIFNγ (source R&D Cat#485-MI/CF, final concentration 25 ng/ml), and different concentrations of compounds (DMSO content 0.5%) were added to the reaction system. The cell culture plates were incubated at 37 °C in 5% CO2 for 96 h. 25 µL of CTG was added, Envision was used for reading, the cell growth inhibition IC50 value (Cell IC50) was fitted by nonlinear regression analysis using a four-parameter logistic equation with DMSO/mIFNγ as the negative control and [drawing 152] as the positive control.

PTPN2 = molecular target: T1, PTPN2 (Homo sapiens, UniProt P17706); assay: PTPN2 inhibitory activity assay (HTRF); assay type: biochemical; details: PTPN2 final concentration 1 nM, substrate 1 µM, 40 min at room temperature
T1 construct: purchased Sino biological 10570-H20B
T1 sequence (P17706 1-415): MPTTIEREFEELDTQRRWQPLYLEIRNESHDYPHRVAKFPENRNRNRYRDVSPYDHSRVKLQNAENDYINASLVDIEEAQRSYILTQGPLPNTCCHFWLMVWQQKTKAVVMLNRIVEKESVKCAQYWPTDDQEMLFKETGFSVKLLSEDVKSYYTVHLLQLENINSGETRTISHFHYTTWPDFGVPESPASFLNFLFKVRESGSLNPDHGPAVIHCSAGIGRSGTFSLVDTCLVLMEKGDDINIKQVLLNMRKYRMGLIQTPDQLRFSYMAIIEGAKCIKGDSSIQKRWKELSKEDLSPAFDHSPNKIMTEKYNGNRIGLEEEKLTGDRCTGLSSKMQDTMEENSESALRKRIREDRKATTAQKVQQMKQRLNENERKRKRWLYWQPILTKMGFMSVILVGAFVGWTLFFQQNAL
Method: The present invention employs HTRF assay to characterize the inhibitory activity of compounds against PTPN2. The specific experimental process was as follows: compounds were transferred to a 384-well plate (PE# 6007290) using ECHO, and enzymatic reaction buffer (50 mM HEPES pH 7.5, 10 mM EDTA,0.01% Tween 20, 2 mM DTT) was prepared. PTPN2 (Sino biological #10570-H20B) was diluted in the reaction buffer, PTPN2 (final concentration 1 nM) was added and incubated with the compound at room temperature for 10 min, then the substrate (final concentration 1 µM) (biotin-(NH-CH2-CH2-O-CH2-CH2-O-CH2-CO)-T-R-D-I-(PY)-E-T-D-Y-Y-R-K-K-NH2) (Genscript) was added, and the reaction was terminated by adding a quencher after incubation at room temperature for 40 min. A final concentration of 10 nM Eu-anti-P (PY20) antibody (Cisbio#AD0066) and 15 nM APC-Streptavidin (Cisbio#AD0201) was added and incubated at room temperature for 1 hour. The fluorescence values of the reacted 384-well plates were read at 620 nm and 665 nm using Envision, and the IC50 value of inhibiting PTPN2 enzyme activity (PTPN 2 IC50) was fitted by nonlinear regression analysis of a four-parameter logistic equation.

[1] = Mus musculus, B16-F10; B16F10 cells with mIFNγ final concentration 25 ng/ml, 96 h, CTG readout
[2] = Mus musculus, B16-F10, 96 h, B16F10 cells with mIFNγ final concentration 25 ng/ml, CTG readout
[3] = B16F10 cells with mIFNγ final concentration 25 ng/ml, 96 h, CTG readout

GI50 (B16F10 cells; [1]) [µM] | SMILES | IC50 (PTPN2) [µM] | GI50 (B16F10 cells; [2]) [µM] | GI50 (B16F10 cells; [3]) [µM]
1 to 10 | CC(C)(C)CCN[C@H]1Cc2c(cc(O)c(N3CC(=O)NS3(=O)=O)c2F)C2CC21 (some centres unmarked) [Compound 10] | ≤ 0.02 |  | 
 | CC(C)CCNCC1Cc2cc(O)c(N3CC(=O)NS3(=O)=O)c(F)c2/C1=C\F (racemic) [Compound 7] | 0.02 to 0.1 | 10 to 100 | 
 | CC(C)CCNCC1Cc2cc(O)c(N3CC(=O)NS3(=O)=O)c(F)c2/C1=C/F (single isomer, unassigned) [Compound 5] | 0.1 to 0.5 |  | 10 to 100
1 to 10 | O=C1CN(c2c(O)cc3c(c2F)C[C@H](NCCC2CCCC2)C2CC32)S(=O)(=O)N1 (some centres unmarked) [Compound 17] | ≤ 0.02 |  | 
 | CC(C)(CCN[C@H]1Cc2c(cc(O)c(N3CC(=O)NS3(=O)=O)c2F)C2CC21)C(F)(F)F (some centres unmarked) [Compound 9] | ≤ 0.02 | 1 to 10 | 
1 to 10 | O=C1CN(c2c(O)cc3c(c2F)C[C@H](NCC2CCCCO2)C2CC32)S(=O)(=O)N1 (some centres unmarked) [Compound 16] | 0.1 to 0.5 |  | 
 | CC(C)CCN[C@H]1Cc2c(cc(O)c(N3CC(=O)NS3(=O)=O)c2F)C2CC21 (some centres unmarked) [Compound 1] | ≤ 0.02 | 1 to 10 | 
 | CC(C)CCNCC1Cc2cc(O)c(N3CC(=O)NS3(=O)=O)c(F)c2/C1=C/F (single isomer, unassigned) [Compound 6] | ≤ 0.02 |  | ≤ 1
 | CC(C)CCN[C@H]1Cc2c(cc(O)c(N3CC(=O)NS3(=O)=O)c2F)C2CC21 (single isomer, unassigned) [Compound 2] | 0.1 to 0.5 |  | 10 to 100
 | CC(C)CCNCC1Cc2cc(O)c(N3CC(=O)NS3(=O)=O)c(F)c2/C1=C/F (racemic) [Compound 4] | ≤ 0.02 | 1 to 10 | 
10 to 100 | O=C1CN(c2c(O)cc3c(c2F)C[C@H](NCCC2CCCCC2)C2CC32)S(=O)(=O)N1 (some centres unmarked) [Compound 11] | ≤ 0.02 |  | 
 | O=C1CN(c2c(O)cc3c(c2F)C[C@H](NCCCC(F)(F)F)C2CC32)S(=O)(=O)N1 (some centres unmarked) [Compound 8] | ≤ 0.02 | ≤ 1 | 
 | CC(C)CCN[C@H]1Cc2c(cc(O)c(N3CC(=O)NS3(=O)=O)c2F)C2CC21 (single isomer, unassigned) [Compound 3] | ≤ 0.02 |  | ≤ 1
